# Measured values reported in patent publication US20020081686A1 (priority 1999, published 2002).
# System: PPK2
# Conditions: 1 mM Pi
# Text: PPK2 has been detected in crude cell extracts of K.pneumoniae and E. coli.
substance,measurement,value
phosphate,inhibition of PPK2,about 90%
